The results in this text go back to ChEMBL document CHEMBL2169778, “Small molecule inhibitors of signal transducer and activator of transcription 3 (Stat3) protein” (J Med Chem, 2012).

Test [1] has as its target Tyrosine-protein kinase JAK2 (Homo sapiens) (UniProt O60674). As to conditions: at 5 µM.
Description: Inhibition of JAK2 at 5 uM by high throughput assay
Test [2] has as its target T1, Signal transducer and activator of transcription 3 (Mus musculus, UniProt P42227). Description: Inhibition of STAT3 dimerization in v-Src transformed mouse NIH/3T3 cells overexpressing human EGFR assessed as suppression of STAT3-DNA interaction in nucleus after 30 mins by EMSA. It is filed as cell-based, NIH3T3.
Test [3] deals with HepG2. Description: Cytotoxicity against human HepG2 cells with intact TGFbeta pathway assessed as growth inhibition at 250 uM after 72 hrs by MTT assay. As to conditions: HepG2, 72 h, read-out: GI. Type of test: functional. (Tetrazolium dyes change colour on reduction, which living cells bring about.)
In test [4] the test system is SNU-449. The experiment in a line: Cytotoxicity against human SNU449 cells with intact TGFbeta pathway assessed as growth inhibition at 250 uM after 72 hrs by MTT assay. It is filed as functional. As to conditions: SNU-449, 72 h, read-out: GI.
Test [5] relates to SNU-398. The experiment in a line: Cytotoxicity against human SNU398 cells with impaired TGFbeta pathway assessed as growth inhibition at 250 uM after 72 hrs by MTT assay. Type of test: functional. As to conditions: SNU-398, 72 h, read-out: GI.
For test [6], the system named is SNU-475. The experiment in a line: Cytotoxicity against human SNU475 cells with impaired TGFbeta pathway assessed as growth inhibition at 250 uM after 72 hrs by MTT assay. Type of test: functional. As to conditions: SNU-475, 72 h, read-out: GI.
For test [7], the system named is Huh-7. The experiment in a line: Cytotoxicity against human HuH7 cells with impaired TGFbeta pathway assessed as growth inhibition at 250 uM after 72 hrs by MTT assay. It is filed as functional. As to conditions: Huh-7, 72 h, read-out: GI.
The nature of test [8]: Cytotoxicity against human SNU182 cells with impaired TGFbeta pathway assessed as growth inhibition at 250 uM after 72 hrs by MTT assay. Type of test: functional, cell-based. As to conditions: SNU-182.
A short description of test [9]: Cytotoxicity against human PLC/PRF/5 cells with intact TGFbeta pathway assessed as growth inhibition at 250 uM after 72 hrs by MTT assay. Type of test: functional, cell-based.
Test [10] deals with T2, Signal transducer and activator of transcription 3 (Homo sapiens, UniProt P40763). The experiment in a line: Inhibition of STAT3 in human MDA-MB-435 cells at 20 uM after 48 hrs by luciferase reporter gene assay relative to untreated control. Type of test: cell-based. (Reporter assays use an easily measured gene product as a stand-in for the process of interest.)
The nature of test [11]: Binding affinity to full length STAT3alpha by fluorescence polarization assay. In general terms: In fluorescence polarisation assays a small probe gives low polarisation when free and higher when bound to something large.
In test [12] the target is T2, Signal transducer and activator of transcription 3. Description: Inhibition of STAT3 SH2 domain using 5-carboxyfluorescein-GY(PO3H2)LPQTV-NH2 as substrate preincubated for 60 mins prior to substrate addition by fluorescence polarization assay.
Test [13] has the same target. The experiment in a line: Inhibition of STAT3 SH2 domain assessed as inhibition of STAT3 SH2-phosphotyrosine interaction after 15 mins by fluorescence polarization assay.
Test [14] shares this target. The experiment in a line: Inhibition of recombinant STAT3 assessed as inhibition of STAT3-phosphododecapeptide interaction by SPR analysis.
The target is the same in test [15]. Description: Inhibition of IL6-mediated STAT3 phosphorylation in human HepG2 cells preincubated for 1 hr prior to IL6 challenge measured after 30 mins by immunoblot analysis. It is filed as cell-based.
For test [16], the system named is NIH3T3. The experiment in a line: Cytotoxicity against mouse NIH/3T3 cells without constitutively active STAT3 after 24 to 144 hrs by trypan blue-staining based phase contrast microscopy. Type of test: cell-based.
Test [17] addresses T3, Signal transducer and activator of transcription 1-alpha/beta (Homo sapiens, UniProt P42224).
T3 sequence (P42224 whole entry): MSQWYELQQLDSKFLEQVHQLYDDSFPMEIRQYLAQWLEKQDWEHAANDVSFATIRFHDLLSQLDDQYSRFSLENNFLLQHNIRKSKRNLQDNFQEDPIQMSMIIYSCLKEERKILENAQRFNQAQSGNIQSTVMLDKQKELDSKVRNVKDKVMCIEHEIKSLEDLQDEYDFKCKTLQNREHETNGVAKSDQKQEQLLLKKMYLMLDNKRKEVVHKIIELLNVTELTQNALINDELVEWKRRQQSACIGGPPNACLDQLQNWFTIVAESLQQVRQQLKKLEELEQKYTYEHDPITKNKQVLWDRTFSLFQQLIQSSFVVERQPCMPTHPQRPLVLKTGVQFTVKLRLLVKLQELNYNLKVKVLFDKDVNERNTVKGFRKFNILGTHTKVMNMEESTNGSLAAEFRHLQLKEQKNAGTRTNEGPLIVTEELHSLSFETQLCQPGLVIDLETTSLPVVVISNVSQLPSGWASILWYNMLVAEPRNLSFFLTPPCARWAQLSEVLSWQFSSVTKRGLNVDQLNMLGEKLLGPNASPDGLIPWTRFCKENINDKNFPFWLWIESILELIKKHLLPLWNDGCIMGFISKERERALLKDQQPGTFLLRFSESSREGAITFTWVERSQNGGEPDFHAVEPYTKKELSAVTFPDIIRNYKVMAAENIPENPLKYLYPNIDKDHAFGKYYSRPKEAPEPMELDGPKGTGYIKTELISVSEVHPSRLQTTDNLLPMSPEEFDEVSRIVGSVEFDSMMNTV
The experiment in a line: Inhibition of STAT1 SH2 domain by fluorescence polarization assay.

Test [18] is described as follows: Cytotoxicity against mouse TE71 without constitutively active STAT3 after 24 to 144 hrs by trypan blue-staining based phase contrast microscopy.
The nature of test [19]: Cytotoxicity against HPDEC without constitutively active STAT3 after 24 to 144 hrs by trypan blue-staining based phase contrast microscopy. As to conditions: Homo sapiens.
Test [20] addresses T1, Signal transducer and activator of transcription 3. Description: Binding affinity to STAT3 SH2 in v-Src transformed mouse NIH/3T3 cells overexpressing human EGFR. Type of test: cell-based, NIH3T3.
The test system of test [21] is MDA-MB-231. The experiment in a line: Cytotoxicity against human MDA-MB-231 cells harboring constitutively active STAT3 after 24 to 144 hrs by trypan blue-staining based phase contrast microscopy. It is filed as functional, cell-based.
Test [22] has as its system PANC-1. The experiment in a line: Cytotoxicity against human PANC1 cells harboring constitutively active STAT3 after 24 to 144 hrs by trypan blue-staining based phase contrast microscopy. Type of test: functional, cell-based.
Test [23] addresses T2, Signal transducer and activator of transcription 3. The experiment in a line: Inhibition of STAT3 SH2 domain assessed as inhibition of STAT3 SH2-phosphotyrosine interaction by AlphaScreen assay.
The target of test [24] is T3, Signal transducer and activator of transcription 1-alpha/beta. The experiment in a line: Inhibition of STAT1 SH2 domain assessed as inhibition of STAT1 SH2-phosphotyrosine interaction by AlphaScreen assay.
Test [25] deals with T2, Signal transducer and activator of transcription 3. Description: Inhibition of STAT3 expressed in human U3A cells after 1 hr by luciferase reporter gene assay. It is filed as cell-based.

Where a SMILES comes first, the peptide text is derived from it. [ ]: non-standard residue; d: D form. The star is where a group is joined. Pro(3S,4R-methano) = O=C(O)[C@H]1NC[C@@H]2C[C@@H]21; pY = N[C@@H](Cc1ccc(OP(=O)(O)O)cc1)C(=O)O; Hydrocinnamoyl = O=C(CCc1ccccc1)*; NHBn = c1ccc(CN*)cc1

T2 sequence (P40763 whole entry): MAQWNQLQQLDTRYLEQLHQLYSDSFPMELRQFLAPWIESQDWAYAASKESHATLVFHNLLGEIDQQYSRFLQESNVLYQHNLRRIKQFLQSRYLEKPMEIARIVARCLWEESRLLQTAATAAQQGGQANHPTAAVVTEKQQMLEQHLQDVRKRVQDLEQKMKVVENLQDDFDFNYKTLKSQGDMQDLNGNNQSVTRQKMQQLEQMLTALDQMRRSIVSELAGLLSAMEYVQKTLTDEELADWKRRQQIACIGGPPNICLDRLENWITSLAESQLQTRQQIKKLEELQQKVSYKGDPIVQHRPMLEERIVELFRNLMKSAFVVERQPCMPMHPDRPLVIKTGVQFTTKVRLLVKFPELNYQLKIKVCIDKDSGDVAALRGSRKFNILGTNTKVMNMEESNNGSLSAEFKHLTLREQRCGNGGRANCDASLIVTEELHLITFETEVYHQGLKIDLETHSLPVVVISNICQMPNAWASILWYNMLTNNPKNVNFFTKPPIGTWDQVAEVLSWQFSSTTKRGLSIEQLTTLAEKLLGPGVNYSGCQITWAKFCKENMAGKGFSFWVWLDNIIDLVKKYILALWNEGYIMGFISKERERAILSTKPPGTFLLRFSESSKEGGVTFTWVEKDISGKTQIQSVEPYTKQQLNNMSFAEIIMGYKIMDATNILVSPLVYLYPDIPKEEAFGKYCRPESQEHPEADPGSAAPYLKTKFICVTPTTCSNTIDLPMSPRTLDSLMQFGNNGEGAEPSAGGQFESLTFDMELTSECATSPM
T1 sequence (P42227 whole entry): as the sequence (P40763 whole entry) above, with E760D counted along it
Chain of Tyrosine-protein kinase JAK2 (Homo sapiens) (O60674 whole entry): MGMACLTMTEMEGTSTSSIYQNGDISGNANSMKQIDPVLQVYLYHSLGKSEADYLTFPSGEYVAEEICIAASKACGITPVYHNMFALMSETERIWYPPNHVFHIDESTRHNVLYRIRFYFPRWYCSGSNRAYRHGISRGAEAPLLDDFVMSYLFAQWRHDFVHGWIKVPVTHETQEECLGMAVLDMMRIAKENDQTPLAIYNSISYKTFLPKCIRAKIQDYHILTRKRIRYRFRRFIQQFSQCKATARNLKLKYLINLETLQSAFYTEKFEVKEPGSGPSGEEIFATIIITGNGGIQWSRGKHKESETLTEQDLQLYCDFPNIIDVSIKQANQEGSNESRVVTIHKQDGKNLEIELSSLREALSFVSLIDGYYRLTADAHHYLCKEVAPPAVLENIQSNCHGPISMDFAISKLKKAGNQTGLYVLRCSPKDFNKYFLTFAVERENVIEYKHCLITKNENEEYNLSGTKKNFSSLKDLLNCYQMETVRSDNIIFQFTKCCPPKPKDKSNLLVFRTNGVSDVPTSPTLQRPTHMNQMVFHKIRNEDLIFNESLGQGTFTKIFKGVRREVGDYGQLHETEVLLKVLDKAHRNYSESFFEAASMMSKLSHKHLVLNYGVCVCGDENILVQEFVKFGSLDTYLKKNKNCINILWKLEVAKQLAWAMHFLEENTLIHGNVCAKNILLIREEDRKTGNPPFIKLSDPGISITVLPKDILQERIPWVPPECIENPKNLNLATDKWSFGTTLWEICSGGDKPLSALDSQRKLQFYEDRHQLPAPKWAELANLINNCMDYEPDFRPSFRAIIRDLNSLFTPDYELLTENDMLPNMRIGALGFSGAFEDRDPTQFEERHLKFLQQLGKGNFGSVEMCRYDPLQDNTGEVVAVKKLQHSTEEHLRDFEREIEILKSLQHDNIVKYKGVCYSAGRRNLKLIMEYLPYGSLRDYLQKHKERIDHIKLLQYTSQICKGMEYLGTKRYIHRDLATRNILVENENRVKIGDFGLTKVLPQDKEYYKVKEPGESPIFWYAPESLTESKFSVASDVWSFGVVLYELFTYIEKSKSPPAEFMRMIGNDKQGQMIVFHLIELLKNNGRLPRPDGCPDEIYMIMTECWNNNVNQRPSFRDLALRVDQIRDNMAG

`COc1ccc(/C=C/C(=O)C(C)(C)C(=O)/C=C/c2ccc(OC)c(OC)c2)cc1OC`: the inhibition – broadly, the share of the control response that was lost under treatment – in [1] amounted to 60%.
Take `CCCCCCNC(=O)c1nc(-c2cccc3ccccc23)sc1Cc1ccc(OP(=O)(O)O)cc1`: in test [2], the IC50 – broadly, the concentration at which inhibition is half-maximal – came to 25 µM.
With `Cc1ccc(S(=O)(=O)OCC(=O)Nc2ccc(C(=O)O)c(O)c2)cc1`, the inhibition of growth at 250 µM in test [3] came to 20%; in test [4], 20%; in [5] it was 80%; in [6], 80%; in [7], 80%. The values for the growth inhibition (GI) in test [8] and in [9] were 80% and 20%, respectively.
With `COc1cccc(NC(=O)c2nc(-c3ccccc3)oc2Cc2ccc(OP(=O)(O)O)cc2)c1`, the half-inhibitory concentration (IC50) in test [2] worked out at 90 µM.
In turn, `C[C@@H]1CC(=O)c2c(ccc3c2C(=O)c2cccc(O)c2C3=O)C1` gave a fold change (FC) in test [10] of 5.
Take `CC(C)C[C@H](NC(=O)[C@H](Cc1ccc(OP(=O)(O)O)cc1)NC(=O)CCc1ccccc1)C(=O)N1C[C@@H]2C[C@@H]2[C@H]1C(=O)N[C@@H](CCC(N)=O)C(=O)NCc1ccccc1` (Hydrocinnamoyl-[pY]L[Pro(3S,4R-methano)]Q-NHBn): in test [11], affinity was put at a Ki of 125 nM.
For `O=C(Nc1ccc(C2CCCCC2)cc1)c1nc(-c2ccccc2)oc1Cc1ccc(OP(=O)(O)O)cc1`, in test [2], the IC50 was 33 µM.
In turn, `O=[N+]([O-])c1ccc2c(c1)S(=O)(=O)C=C2` showed an IC50 in [12] of 5.1 µM.
As for `Cc1ccc(S(=O)(=O)OCC(=O)N(Cc2ccc(C3CCCCC3)cc2)c2ccc(C(=O)O)c(O)c2)cc1`, the Ki (as a rule, the equilibrium dissociation constant of an inhibitor or competing ligand from its target) in [13] was determined as 50 µM.
As to `O=C(O)c1ccc(/C=C/C(=O)c2ccc3c(c2)OCCO3)cc1`, the results for the half-maximal inhibitory concentration (IC50) in test [14] and in test [15] were 447 µM and 91 µM, respectively.
As for `Cc1ccc(S(=O)(=O)N(C)CC(=O)N(Cc2ccc(C3CCCCC3)cc2)c2ccc(C(=O)O)c(O)c2)cc1`, the IC50 in [16] is greater than 200 µM; in [18] it was greater than 200 µM; in test [19], greater than 200 µM; in test [21], 37 µM; in [22], 48 µM. The compound further showed an inhibition constant Ki in test [17] of no less than 50 µM. Also, in test [20], the Kd (commonly the concentration at which binding is half-saturated) was found to be 2740 nM.
Consider `CCCCCCNC(=O)c1nc(-c2cccc3ccccc23)oc1Cc1ccc(OP(=O)(O)O)cc1`, for which the IC50 in test [2] came out at 58 µM.
On to `COc1cccc(NC(=O)c2nc(-c3ccccc3)sc2Cc2ccc(OP(=O)(O)O)cc2)c1`, for which the IC50 in test [2] was 28 µM.
On to `Cc1ccc(S(=O)(=O)N(C)CC(=O)N(Cc2ccc(C3CCN(c4ccc(C#N)cc4)CC3)cc2)c2ccc(C(=O)O)c(O)c2)cc1`, for which, in [13], the Ki was determined as 18.7 µM.
For the compound `C1=Cc2nc1cc1ccc([nH]1)c(-c1ccccc1)c1nc(cc3ccc([nH]3)c2-c2ccccc2)C=C1`, the figures for the IC50 in [23] and in [24] were 280 nM and 10 µM, respectively.
`O=C(N/N=C/c1ccc([N+](=O)[O-])o1)c1ccc(O)cc1` [NIFUROXAZIDE]: the EC50 (as a rule, the concentration giving half of the maximal effect) in test [25] was found to be 3 µM.
